Assay results: PubChem BioAssay AID330 (DTP/NCI, 2004)
Several values for one entry are separate records, joined by “and”; a condition that tells them apart may be missing. Equal values may be shown once. Inconclusive results and toxic doses are left out. The calls were made as follows: active = survival T/C of 150% or more; inactive = T/C below 125% in these data.

Test system: P388 leukemia ip, CD2F1 mice, survival T/C
Assay: NCI In Vivo Anticancer Drug Screen. Data for tumor model P388 Leukemia (intraperitoneal) in CD2F1 (CDF1) mice
Details: endpoint: median survival time, higher = longer survival
How it was run: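 Mice carrying the transplanted tumor received test compound or vehicle. Survival was recorded in each group, and the value is the treated-group measurement divided by that of the vehicle-treated control group.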

[1] = dose: 60.0 mg/kg/injection, schedule: Q01DX005 (ip), vehicle: Klucel (hydroxypropylcellulose) (HPC)
[2] = dose: 120.0 mg/kg/injection, schedule: Q01DX005 (ip), vehicle: Klucel (hydroxypropylcellulose) (HPC)
[3] = dose: 50.0 mg/kg/injection, schedule: Q01DX005 (ip), vehicle: Klucel (hydroxypropylcellulose) (HPC)
[4] = dose: 100.0 mg/kg/injection, schedule: Q01DX005 (ip), vehicle: Klucel (hydroxypropylcellulose) (HPC)
[5] = dose: 240.0 mg/kg/injection, schedule: Q01DX005 (ip), vehicle: Klucel (hydroxypropylcellulose) (HPC)
[6] = dose: 8.75 mg/kg/injection, schedule: Q01DX005 (ip), vehicle: Klucel (hydroxypropylcellulose) (HPC)
[7] = dose: 17.5 mg/kg/injection, schedule: Q01DX005 (ip), vehicle: Klucel (hydroxypropylcellulose) (HPC)
[8] = dose: 35.0 mg/kg/injection, schedule: Q01DX005 (ip), vehicle: Klucel (hydroxypropylcellulose) (HPC)
[9] = dose: 12.5 mg/kg/injection, schedule: Q01DX005 (ip), vehicle: Klucel (hydroxypropylcellulose) (HPC)
[10] = dose: 25.0 mg/kg/injection, schedule: Q01DX005 (ip), vehicle: Klucel (hydroxypropylcellulose) (HPC)
[11] = dose: 50.0 mg/kg/injection, schedule: Q01DX005 (ip), vehicle: saline with Tween-80
[12] = dose: 100.0 mg/kg/injection, schedule: Q01DX005 (ip), vehicle: saline with Tween-80
[13] = dose: 200.0 mg/kg/injection, schedule: Q01DX005 (ip), vehicle: saline with Tween-80

Measured: T/C

C(=Nc1cnc2ccccc2c1)c1ccnc2ccccc12
inactive: dose: 12.5 mg/kg/injection, schedule: Q01DX009 (ip), vehicle: saline with Tween-80 98 % of control | dose: 12.5 mg/kg/injection, schedule: Q04DX003 (ip), vehicle: saline with Tween-80 107 % of control | dose: 25.0 mg/kg/injection, schedule: Q01DX009 (ip), vehicle: saline with Tween-80 98 % of control | dose: 25.0 mg/kg/injection, schedule: Q04DX003 (ip), vehicle: saline with Tween-80 96 % of control | dose: 50.0 mg/kg/injection, schedule: Q01DX009 (ip), vehicle: saline with Tween-80 101 % of control | dose: 50.0 mg/kg/injection, schedule: Q04DX003 (ip), vehicle: saline with Tween-80 114 % of control | dose: 100.0 mg/kg/injection, schedule: Q01DX009 (ip), vehicle: saline with Tween-80 96 % of control | dose: 100.0 mg/kg/injection, schedule: Q04DX003 (ip), vehicle: saline with Tween-80 99 % of control

CCC(=O)OCCN(CCOC(=O)CC)C(=O)C(C)OC(=O)CC (stereo not drawn)
inactive: dose: 25.0 mg/kg/injection, schedule: Q01DX005 (ip), vehicle: saline 105 % of control | dose: 50.0 mg/kg/injection, schedule: Q01DX005 (ip), vehicle: saline 110 % of control | dose: 100.0 mg/kg/injection, schedule: Q01DX005 (ip), vehicle: saline 105 % of control | dose: 200.0 mg/kg/injection, schedule: Q01DX005 (ip), vehicle: saline 110 % of control

COc1ccc(C(OCC2CC3CCC2C3)OCC2CC3CCC2C3)cc1 (stereo not drawn)
inactive: dose: 12.5 mg/kg/injection, schedule: Q01DX009 (ip), vehicle: other 114 % of control | dose: 25.0 mg/kg/injection, schedule: Q01DX009 (ip), vehicle: other 111 % of control | dose: 50.0 mg/kg/injection, schedule: Q01DX009 (ip), vehicle: other 110 % of control | dose: 100.0 mg/kg/injection, schedule: Q01DX009 (ip), vehicle: other 111 % of control | dose: 200.0 mg/kg/injection, schedule: Q01DX009 (ip), vehicle: other 111 % of control

CCOC(=O)/C(=C(\C)N)n1[nH]c(=O)ccc1=O
inactive: dose: 100.0 mg/kg/injection, schedule: Q04DX002 (ip), vehicle: saline 98 % of control | dose: 200.0 mg/kg/injection, schedule: Q04DX002 (ip), vehicle: saline 100 % of control | dose: 400.0 mg/kg/injection, schedule: Q04DX002 (ip), vehicle: saline 100 % of control

COc1ccccc1NC(=O)C1=C(C)NC(C)=C(C(=O)Nc2ccccc2OC)C1c1cccc([N+](=O)[O-])c1
inactive: [1] 92 % of control | [2] 88 % of control

O=C1Nc2ccc(Br)cc2/C1=c1/sc2nc3ccccc3n2c1=O
inactive: dose: 1.56 mg/kg/injection, schedule: Q01DX005 (ip), vehicle: saline with Tween-80 100 % of control | dose: 3.12 mg/kg/injection, schedule: Q01DX005 (ip), vehicle: saline with Tween-80 98 % of control | dose: 6.25 mg/kg/injection, schedule: Q01DX005 (ip), vehicle: saline with Tween-80 100 % of control | [3] 87 % of control | [4] 94 % of control

CCCSCCC(C)(N)C(=O)O (stereo not drawn)
inactive: dose: 25.0 mg/kg/injection, schedule: Q01DX009 (ip), vehicle: Klucel (hydroxypropylcellulose) (HPC) 98 % of control | dose: 50.0 mg/kg/injection, schedule: Q01DX009 (ip), vehicle: Klucel (hydroxypropylcellulose) (HPC) 91 % of control | dose: 100.0 mg/kg/injection, schedule: Q01DX009 (ip), vehicle: Klucel (hydroxypropylcellulose) (HPC) 107 % of control | dose: 200.0 mg/kg/injection, schedule: Q01DX009 (ip), vehicle: Klucel (hydroxypropylcellulose) (HPC) 96 % of control

CC(=O)CCC1=C(O)C(C)=C(C)C(=O)C1=O
inactive: [1] 103 % of control | [2] 115 % of control | [5] 109 % of control

CCCCCCC(=O)c1c(O)c2ccccc2oc1=O
inactive: dose: 60.0 mg/kg/injection, schedule: Q01DX005 (ip), vehicle: saline with Tween-80 100 % of control | dose: 120.0 mg/kg/injection, schedule: Q01DX005 (ip), vehicle: saline with Tween-80 88 % of control

CCCCC1(O)C(=O)N(c2ccccc2)N(c2ccccc2)C1=O
inactive: [1] 102 % of control | [2] 102 % of control | [5] 96 % of control

C1CC[N-]CC1.C1CC[N-]CC1.C1CC[N-]CC1.C1CC[N-]CC1.N#C[S-].N#C[S-].[Ni]
inactive: dose: 5.0 mg/kg/injection, schedule: Q04DX003 (ip), vehicle: saline with Tween-80 100 % of control | dose: 10.0 mg/kg/injection, schedule: Q04DX003 (ip), vehicle: saline with Tween-80 100 % of control

NC(N)=NCCC(=O)c1cnc(N)[nH]1
inactive: [6] 106 % of control | [7] 107 % of control | [8] 100 % of control

O=C1NC(=O)/C(=C\c2ccccc2)C2=C1CCCC2
inactive: [9] 103 % of control | [10] 103 % of control | [3] 108 % of control

COc1cc2c(C)nc3c4cc5c(cc4ccc3c2cc1OC)OCO5
inactive: dose: 25.0 mg/kg/injection, schedule: Q01DX009 (ip), vehicle: water 108 % of control | dose: 50.0 mg/kg/injection, schedule: Q01DX009 (ip), vehicle: water 95 % of control

O=C(NN(CCN(NC(=O)c1ccccc1)C(=O)c1ccccc1)C(=O)c1ccccc1)c1ccccc1
inactive: [11] 99 % of control | [12] 92 % of control | [13] 96 % of control

CC1=C(O)C(=O)C=C2C1=CC=C1[C@@]2(C)CCC2(C)[C@@H]3C[C@@H](C)C(=O)C[C@]3(C)CC[C@]12C (stereo partly drawn)
inactive: [9] 109 % of control | [10] 101 % of control | [3] 90 % of control | [4] 97 % of control | dose: 260.0 mg/kg/injection, schedule: Q01DX005 (ip), vehicle: Klucel (hydroxypropylcellulose) (HPC) 97 % of control

c1ncn(Sn2cncn2)n1
inactive: [6] 100 % of control | [7] 101 % of control | [8] 104 % of control

CCS(=O)(=O)[O][Sn]([CH2]C)([CH2]C)[O]S(=O)(=O)CC
inactive: dose: 1.56 mg/kg/injection, schedule: Q04DX003 (ip), vehicle: saline 107 % of control | dose: 3.12 mg/kg/injection, schedule: Q04DX003 (ip), vehicle: saline 110 % of control | dose: 6.25 mg/kg/injection, schedule: Q04DX003 (ip), vehicle: saline 116 % of control and 121 % of control

O=C(Nc1nnc(-c2cc(=O)c3cc(Cl)ccc3o2)s1)c1ccccc1
inactive: [11] 92 % of control | [12] 87 % of control and 88 % of control | [13] 99 % of control and 89 % of control

Cc1nc(-c2ccccc2)nc2c1nc(Cc1ccccc1)n2Nc1ccccc1
inactive: dose: 100.0 mg/kg/injection, schedule: Q01DX001 (ip), vehicle: Klucel (hydroxypropylcellulose) (HPC) 87 % of control | dose: 200.0 mg/kg/injection, schedule: Q01DX001 (ip), vehicle: Klucel (hydroxypropylcellulose) (HPC) 91 % of control | dose: 400.0 mg/kg/injection, schedule: Q01DX001 (ip), vehicle: Klucel (hydroxypropylcellulose) (HPC) 87 % of control

CCOC(=O)/C=C/c1c[nH]c(=O)[nH]c1=O
inactive: dose: 12.5 mg/kg/injection, schedule: Q01DX009 (ip), vehicle: distilled water + Tween-80 100 % of control | dose: 25.0 mg/kg/injection, schedule: Q01DX009 (ip), vehicle: distilled water + Tween-80 96 % of control | dose: 50.0 mg/kg/injection, schedule: Q01DX009 (ip), vehicle: distilled water + Tween-80 92 % of control | dose: 100.0 mg/kg/injection, schedule: Q01DX009 (ip), vehicle: distilled water + Tween-80 88 % of control
